The text below walks through data of patent publication US8283361B2 (AstraZeneca AB, priority 2008, dated 2012).

Sequence of S. aureus GyrB ATPase (P0A0K8 whole entry): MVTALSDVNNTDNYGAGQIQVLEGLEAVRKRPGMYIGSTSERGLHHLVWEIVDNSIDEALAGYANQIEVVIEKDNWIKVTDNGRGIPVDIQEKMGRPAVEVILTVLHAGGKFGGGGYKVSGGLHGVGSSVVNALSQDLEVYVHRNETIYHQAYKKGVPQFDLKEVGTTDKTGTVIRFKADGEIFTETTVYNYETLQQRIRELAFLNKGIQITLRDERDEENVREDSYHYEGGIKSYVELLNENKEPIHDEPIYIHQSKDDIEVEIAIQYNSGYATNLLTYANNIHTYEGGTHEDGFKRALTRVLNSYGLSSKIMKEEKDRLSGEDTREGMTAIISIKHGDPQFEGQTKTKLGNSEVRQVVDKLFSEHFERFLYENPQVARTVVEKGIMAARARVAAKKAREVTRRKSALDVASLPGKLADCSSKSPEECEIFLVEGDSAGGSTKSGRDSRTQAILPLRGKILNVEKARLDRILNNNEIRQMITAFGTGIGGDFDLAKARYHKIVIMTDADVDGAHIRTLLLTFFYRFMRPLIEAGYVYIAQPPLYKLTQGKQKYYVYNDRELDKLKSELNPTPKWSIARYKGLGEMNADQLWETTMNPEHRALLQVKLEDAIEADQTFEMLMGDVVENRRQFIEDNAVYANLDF
Sequence of S. aureus GyrB ATPase (P0AES4 whole entry, further chain): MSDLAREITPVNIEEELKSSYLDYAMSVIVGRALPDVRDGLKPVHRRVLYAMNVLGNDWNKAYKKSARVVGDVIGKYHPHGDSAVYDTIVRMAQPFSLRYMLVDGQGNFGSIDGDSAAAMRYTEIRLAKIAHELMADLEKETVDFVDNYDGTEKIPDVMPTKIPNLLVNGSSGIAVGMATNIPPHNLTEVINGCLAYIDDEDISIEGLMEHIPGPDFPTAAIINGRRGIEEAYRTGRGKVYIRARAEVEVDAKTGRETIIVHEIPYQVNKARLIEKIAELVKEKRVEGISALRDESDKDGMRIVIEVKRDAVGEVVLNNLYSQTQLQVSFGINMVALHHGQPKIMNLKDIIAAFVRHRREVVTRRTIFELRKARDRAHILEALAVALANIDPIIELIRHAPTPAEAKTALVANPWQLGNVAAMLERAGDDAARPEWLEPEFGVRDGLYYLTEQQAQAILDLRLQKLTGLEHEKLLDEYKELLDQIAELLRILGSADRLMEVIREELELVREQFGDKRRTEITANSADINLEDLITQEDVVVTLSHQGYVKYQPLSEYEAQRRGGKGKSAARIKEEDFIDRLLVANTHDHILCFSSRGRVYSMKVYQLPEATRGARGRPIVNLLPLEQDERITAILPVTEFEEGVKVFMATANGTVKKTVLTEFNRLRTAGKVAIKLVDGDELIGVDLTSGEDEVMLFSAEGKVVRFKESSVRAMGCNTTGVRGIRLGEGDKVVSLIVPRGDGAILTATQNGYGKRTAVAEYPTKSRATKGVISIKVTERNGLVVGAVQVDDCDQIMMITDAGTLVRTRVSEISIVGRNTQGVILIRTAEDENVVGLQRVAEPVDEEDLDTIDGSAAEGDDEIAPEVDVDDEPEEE

For the first experiment, the target named is S. aureus GyrB ATPase (Staphylococcus aureus, UniProt P0A0K8). The experiment is described as follows: biochemical. To be noted: compound at 1 μM; one value per test if tested more than once; 1 µM. In outline:
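IC50 values derive from 10-point titrations of compound (in DMSO). Phosphate formed from 250 μM ATP was quantified by acidic molybdate/malachite green after quenching.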
As to `CCCNC(=O)Nc1cc(-c2nc(C(F)(F)F)cs2)c(-c2ccc3c(c2)c(=O)c(C(=O)O)cn3CCN(C)C)cn1` [Example 152, 1-(2-(dimethylamino)ethyl)-4-oxo-6-(6-(3-propylureido)-4-(4-(trifluoromethyl)thiazol-2-yl)pyridin-3-yl)-1,4-dihydroquinoline-3-carboxylic acid], the “% Inhibition of S. aureus GyrB ATPase” value was 106%.

The same experiment, now with this note: compound at 1 μM; one value per test if tested more than once; read-out: % Inhibition of S. aureus GyrB ATPase.
What is called inhibition is the change of the read-out against control, counted positive when it falls. Turning to `CCNC(=O)Nc1cc(-c2nc(C(F)(F)F)cs2)c(-c2ccc3c(c2)c(=O)c(C(=O)NC2CCOCC2)cn3C(COC)COC)cn1` [Example 128, 1-(1,3-dimethoxypropan-2-yl)-6-(6-(3-ethylureido)-4-(4-(trifluoromethyl)thiazol-2-yl)pyridin-3-yl)-4-oxo-N-(tetrahydro-2H-pyran-4-yl)-1,4-dihydroquinoline-3-carboxamide], the inhibition at 1 µM came to 92%.

Turning to `CCNC(=O)Nc1cc(-c2nc(C(F)(F)F)cs2)c(-c2ccc3c(c2)c(=O)c(C(=O)NC)cn3C(COC)COC)cn1` [Example 129, 1-(1,3-dimethoxypropan-2-yl)-6-(6-(3-ethylureido)-4-(4-(trifluoromethyl)thiazol-2-yl)pyridin-3-yl)-N-methyl-4-oxo-1,4-dihydroquinoline-3-carboxamide], the inhibition at 1 µM was 93%.

Take `CCNC(=O)Nc1cc(-c2nc(C(F)(F)F)cs2)c(-c2ccc3c(c2)c(=O)c(C(=O)NC)cn3[C@H](C(=O)O)C(C)C)cn1` [Example 130, (S)-2-(6-(6-(3-ethylureido)-4-(4-(trifluoromethyl)thiazol-2-yl)pyridin-3-yl)-3-(methylcarbamoyl)-4-oxoquinolin-1(4H)-yl)-3-methylbutanoic acid]: the inhibition at 1 µM is 101%.

In the case of `CCNC(=O)Nc1cc(-c2nc(C(F)(F)F)cs2)c(-c2ccc3c(c2)c(=O)c(C(=O)N2CCNCC2)cn3C(COC)COC)cn1` [Example 140, 1-{5-[1-(1,3-dimethoxypropan-2-yl)-4-oxo-3-(piperazin-1-ylcarbonyl)-1,4-dihydroquinolin-6-yl]-4-[4-(trifluoromethyl)-1,3-thiazol-2-yl]pyridin-2-yl}-3-ethylurea], the inhibition at 1 µM amounted to 95%.

As to `CCNC(=O)Nc1cc(-c2nc(C(F)(F)F)cs2)c(-c2ccc3c(c2)c(=O)c(C(=O)N2CCN(CCO)CC2)cn3C(COC)COC)cn1` [Example 141, 1-{5-[1-(1,3-dimethoxypropan-2-yl)-3-{[4-(2-hydroxyethyl)piperazin-1-yl]carbonyl}-4-oxo-1,4-dihydroquinolin-6-yl]-4-[4-(trifluoromethyl)-1,3-thiazol-2-yl]pyridin-2-yl}-3-ethylurea], the inhibition at 1 µM stood at 97%.

`CCNC(=O)Nc1cc(-c2nc(C(F)(F)F)cs2)c(-c2ccc3c(c2)c(=O)c(C(=O)N2CCN(S(=O)(=O)N(C)C)CC2)cn3C(COC)COC)cn1` [Example 142, 4-{[1-(1,3-dimethoxypropan-2-yl)-6-{6-[(ethylcarbamoyl)amino]-4-[4-(trifluoromethyl)-1,3-thiazol-2-yl]pyridin-3-yl}-4-oxo-1,4-dihydroquinolin-3-yl]carbonyl}-N,N-dimethylpiperazine-1-sulfonamide]: the inhibition at 1 µM is 97%.

For the compound `CCNC(=O)Nc1cc(-c2nc(C(F)(F)F)cs2)c(-c2ccc3c(c2)c(=O)c(C(=O)N2CCN(C)CC2)cn3C(COC)COC)cn1` [Example 143, 1-(5-{1-(1,3-dimethoxypropan-2-yl)-3-[(4-methylpiperazin-1-yl)carbonyl]-4-oxo-1,4-dihydroquinolin-6-yl}-4-[4-(trifluoromethyl)-1,3-thiazol-2-yl]pyridin-2-yl)-3-ethylurea], the inhibition at 1 µM came out at 95%.

On to `CCNC(=O)Nc1cc(-c2nc(C(F)(F)F)cs2)c(-c2ccc3c(c2)c(=O)c(C(=O)N2CCN(C(C)=O)CC2)cn3C(COC)COC)cn1` [Example 144, 1-(5-{3-[(4-acetylpiperazin-1-yl)carbonyl]-1-(1,3-dimethoxypropan-2-yl)-4-oxo-1,4-dihydroquinolin-6-yl}-4-[4-(trifluoromethyl)-1,3-thiazol-2-yl]pyridin-2-yl)-3-ethylurea], for which the inhibition at 1 µM is 94%.

For the compound `CCNC(=O)Nc1cc(-c2nc(C(F)(F)F)cs2)c(-c2ccc3c(c2)c(=O)c(C(=O)N2CCN(S(C)(=O)=O)CC2)cn3C(COC)COC)cn1` [Example 145, 1-{5-[1-(1,3-dimethoxypropan-2-yl)-3-{[4-(methylsulfonyl)piperazin-1-yl]carbonyl}-4-oxo-1,4-dihydroquinolin-6-yl]-4-[4-(trifluoromethyl)-1,3-thiazol-2-yl]pyridin-2-yl}-3-ethylurea], the inhibition at 1 µM amounted to 92%.

`CCNC(=O)Nc1cc(-c2nc(C(F)(F)F)cs2)c(-c2ccc3c(c2)c(=O)c(C(=O)NCCCO)cn3C2CC2)cn1` [Example 147, 1-cyclopropyl-6-(6-(3-ethylureido)-4-(4-(trifluoromethyl)thiazol-2-yl)pyridin-3-yl)-N-(3-hydroxypropyl)-4-oxo-1,4-dihydroquinoline-3-carboxamide]: the inhibition at 1 µM came to 102%.

For `CCNC(=O)Nc1cc(-c2nc(C(F)(F)F)cs2)c(-c2ccc3c(c2)c(=O)c(C(=O)NCCO)cn3C(COC)COC)cn1` [Example 148, 1-(1,3-dimethoxypropan-2-yl)-6-(6-(3-ethylureido)-4-(4-(trifluoromethyl)thiazol-2-yl)pyridin-3-yl)-N-(2-hydroxyethyl)-4-oxo-1,4-dihydroquinoline-3-carboxamide], the inhibition at 1 µM worked out at 93%.

On to `CCNC(=O)Nc1cc(-c2nc(C(F)(F)F)cs2)c(-c2ccc3c(c2)c(=O)c(C(=O)NCCCO)cn3C(COC)COC)cn1` [Example 149, 1-(1,3-dimethoxypropan-2-yl)-6-(6-(3-ethylureido)-4-(4-(trifluoromethyl)thiazol-2-yl)pyridin-3-yl)-N-(3-hydroxypropyl)-4-oxo-1,4-dihydroquinoline-3-carboxamide], for which the inhibition at 1 µM is 93%.

On to `CCCNC(=O)Nc1cc(-c2nc(C(F)(F)F)cs2)c(-c2ccc3c(c2)c(=O)c(C(=O)O)cn3CCN(C)C)cn1` [Example 152, 1-(2-(dimethylamino)ethyl)-4-oxo-6-(6-(3-propylureido)-4-(4-(trifluoromethyl)thiazol-2-yl)pyridin-3-yl)-1,4-dihydroquinoline-3-carboxylic acid], for which the inhibition at 1 µM was found to be 95%.

With `CCCNC(=O)Nc1cc(-c2nc(C(F)(F)F)cs2)c(-c2ccc3c(c2)c(=O)c(C(=O)O)cn3C2CN(C)C2)cn1` [Example 153, 1-(1-methylazetidin-3-yl)-4-oxo-6-(6-(3-propylureido)-4-(4-(trifluoromethyl)thiazol-2-yl)pyridin-3-yl)-1,4-dihydroquinoline-3-carboxylic acid], the inhibition at 1 µM was found to be 105%.

As to `CCCNC(=O)Nc1cc(-c2nc(C(F)(F)F)cs2)c(-c2ccc3c(c2)c(=O)c(C(=O)N2CCN(S(=O)(=O)N(C)C)CC2)cn3CCN(C)C)cn1` [Example 154, 4-(1-(2-(dimethylamino)ethyl)-4-oxo-6-(6-(3-propylureido)-4-(4-(trifluoromethyl)thiazol-2-yl)pyridin-3-yl)-1,4-dihydroquinoline-3-carbonyl)-N,N-dimethylpiperazine-1-sulfonamide], the inhibition at 1 µM was found to be 107%.

In the case of `CCNC(=O)Nc1cc(-c2nc(C(F)(F)F)cs2)c(-c2ccc3c(c2)c(=O)c(C(=O)N2CCN(C)CC2)cn3CCN(C)C)cn1` [Example 155, 1-(5-(1-(2-(dimethylamino)ethyl)-3-(4-methylpiperazine-1-carbonyl)-4-oxo-1,4-dihydroquinolin-6-yl)-4-(4-(trifluoromethyl)thiazol-2-yl)pyridin-2-yl)-3-ethylurea], the inhibition at 1 µM was 94%.

`CCCNC(=O)Nc1cc(-c2nc(C(F)(F)F)cs2)c(-c2ccc3c(c2)c(=O)c(C(=O)N2CCN(C)CC2)cn3CCN(C)C)cn1` [Example 156, 1-(5-(1-(2-(dimethylamino)ethyl)-3-(4-methylpiperazine-1-carbonyl)-4-oxo-1,4-dihydroquinolin-6-yl)-4-(4-(trifluoromethyl)thiazol-2-yl)pyridin-2-yl)-3-propylurea]: the inhibition at 1 µM was 105%.

Consider `CCCNC(=O)Nc1cc(-c2nc(C(F)(F)F)cs2)c(-c2ccc3c(c2)c(=O)c(C(=O)N2CCN(S(C)(=O)=O)CC2)cn3CCN(C)C)cn1` [Example 157, 1-(5-(1-(2-(dimethylamino)ethyl)-3-(4-(methylsulfonyl)piperazine-1-carbonyl)-4-oxo-1,4-dihydroquinolin-6-yl)-4-(4-(trifluoromethyl)thiazol-2-yl)pyridin-2-yl)-3-propylurea], for which the inhibition at 1 µM came to 103%.

Turning to `CCNC(=O)Nc1cc(-c2nc(C(F)(F)F)cs2)c(-c2ccc3c(c2)c(=O)c(C(=O)N2CCNCC2)cn3CCN(C)C)cn1` [Example 158, 1-(5-(1-(2-(dimethylamino)ethyl)-4-oxo-3-(piperazine-1-carbonyl)-1,4-dihydroquinolin-6-yl)-4-(4-(trifluoromethyl)thiazol-2-yl)pyridin-2-yl)-3-ethylurea], the inhibition at 1 µM is 106%.

Consider `CCNC(=O)Nc1cc(-c2nc(C(F)(F)F)cs2)c(-c2ccc3c(c2)c(=O)c(C(=O)N2CCN(S(=O)(=O)N(C)C)CC2)cn3CCN(C)C)cn1` [Example 159, 4-(1-(2-(dimethylamino)ethyl)-6-(6-(3-ethylureido)-4-(4-(trifluoromethyl)thiazol-2-yl)pyridin-3-yl)-4-oxo-1,4-dihydroquinoline-3-carbonyl)-N,N-dimethylpiperazine-1-sulfonamide], for which the inhibition at 1 µM is 105%.

Turning to `CCCNC(=O)Nc1cc(-c2nc(C(F)(F)F)cs2)c(-c2ccc3c(c2)c(=O)c(C(=O)N2CCN(C(C)=O)CC2)cn3CCN(C)C)cn1` [Example 160, 1-(5-(3-(4-acetylpiperazine-1-carbonyl)-1-(2-(dimethylamino)ethyl)-4-oxo-1,4-dihydroquinolin-6-yl)-4-(4-(trifluoromethyl)thiazol-2-yl)pyridin-2-yl)-3-propylurea], the inhibition at 1 µM worked out at 103%.

Regarding `CCCNC(=O)Nc1cc(-c2nc(C(F)(F)F)cs2)c(-c2ccc3c(c2)c(=O)c(C(=O)N2CCNCC2)cn3CCN(C)C)cn1` [Example 161, 1-(5-(1-(2-(dimethylamino)ethyl)-4-oxo-3-(piperazine-1-carbonyl)-1,4-dihydroquinolin-6-yl)-4-(4-(trifluoromethyl)thiazol-2-yl)pyridin-2-yl)-3-propylurea], the inhibition at 1 µM stood at 101%.
